Test results reported in paper PMC7577125 (Antimicrobial Agents and Chemotherapy, 2020).
Read-outs that look alike come from different tables or passages of the source.

Legend:
[1] = system: Huh7, HepG2, HeLa H1A, HEK293, NCI-H226, MOLT-4, PBMC
in vitro [2] = details: rat, plasma
HBV = HBV infection of primary human hepatocytes (PHHs); type: cell-based; details: Hepatitis B virus, Hepatocyte, PHH
HBV Cp I105L = experiment: microbe, parasite or virus in culture; type: cell-based, Hepatitis B virus
in vitro [3] = details: human
HBV Cp T109I = experiment: microbe, parasite or virus in culture; type: cell-based, Hepatitis B virus
in vivo = details: male
Description: The same solution formulation was administered per os (p.o.) in the same species to determine oral bioavailability.
Pharmacokinetic studies were performed at Wuxi (Shanghai, China) for studies in male mouse, rat, and cynomolgus monkey and at Sai (Pune, India) for studies in male dog. For all oral studies, the formulation was administered in the fasted state (food removed at least 12 h prior to dosing) to groups of 3 per arm.

[4] = Hepatitis B virus, Huh-7, read-out: Mean EC50
[5] = Sprague-Dawley, rat, iv, 1 mg/kg
[6] = Sprague-Dawley, rat, po, 2 mg/kg
[7] = cynomolgus monkey, iv, 0.5 mg/kg

Compound: O=C(NCc1cnc(C(F)(F)F)s1)c1ccc2c(c1)NC(=O)c1ccccc1S2(=O)=O [ABI-H0731]
- CC50 relative to VR EC50 [1]: > 50 fold
- fraction unbound at 6 h (in vitro [2]): 0.02 to 0.052
- EC50 (HBV; read-out: Mean EC50, HBeAg): 2210 nM
- EC50 (HBV; read-out: Mean EC50, HBsAg): 3000 nM
- EC50 (HBV; read-out: Mean EC50, pgRNA): 1840 nM
- EC50 (HBV; total intracellular viral DNA, read-out: Mean EC50, viral DNA): 154 ± 18 nM
- EC50 (HBV Cp I105L; [4]): 41 ± 6 nM
- Fold shift (HBV Cp I105L; I105L vs wild type): 0.3 fold
- CC50 at 4 days (in vitro [3]): > 10000 nM
- EC50 (HBV Cp T109I; [4]): > 10000 nM
- Fold shift (HBV Cp T109I; T109I vs wild type): >68 fold
- Vd (in vivo; CD-1 (mouse), Sprague-Dawley (rat), beagle (dog), cynomolgus monkey, iv): 1.56 to 4.06 L/kg
- Tmax (in vivo; CD-1 (mouse), Sprague-Dawley (rat), beagle (dog), cynomolgus monkey, po): 0.7 to 3.3 h
- plasma clearance as % of liver blood flow (in vivo; CD-1, mouse, iv): 9%
- AUC(0-inf) (in vivo; CD-1, mouse, iv, 1 mg/kg): 2070 ng·h/mL
- T1/2 (in vivo; CD-1, mouse, iv, 1 mg/kg): 3.55 h
- Vd (in vivo; CD-1, mouse, iv, 1 mg/kg): 2.16 L/kg
- clearance (in vivo; CD-1, mouse, iv, 1 mg/kg): 8.05 mL/min/kg
- half-life (in vivo; CD-1, mouse, iv, 1 mg/kg, T1/2): 3.6 h
- AUC(0-inf) (in vivo; CD-1, mouse, po, 5 mg/kg): 8690 ng·h/mL
- Cmax (in vivo; CD-1, mouse, po, 5 mg/kg): 1420 ng/mL
- Tmax (in vivo; CD-1, mouse, po, 5 mg/kg): 1 h
- bioavailability (in vivo; CD-1, mouse, po, 5 mg/kg): 84%
- half-life (in vivo; CD-1, mouse, po, 5 mg/kg, T1/2): 3.03 h
- plasma clearance as % of liver blood flow (in vivo; Sprague-Dawley, rat, iv): 16%
- AUC(0-inf) (in vivo; [5]): 1670 ng·h/mL
- T1/2 (in vivo; [5]): 4.92 h
- Vd (in vivo; [5]): 3.47 L/kg
- clearance (in vivo; [5]): 10.1 mL/min/kg
- half-life (in vivo; Sprague-Dawley, rat, iv, 1 mg/kg, T1/2): 4.9 h
- AUC(0-inf) (in vivo; [6]): 3160 ng·h/mL
- Cmax (in vivo; [6]): 324 ng/mL
- Tmax (in vivo; [6]): 1 h
- bioavailability (in vivo; [6]): 95%
- half-life (in vivo; Sprague-Dawley, rat, po, 2 mg/kg, T1/2): 6.13 h
- plasma clearance as % of liver blood flow (in vivo; beagle, dog, iv): 47%
- AUC(0-inf) (in vivo; beagle, dog, iv, 2 mg/kg): 2890 ng·h/mL
- T1/2 (in vivo; beagle, dog, iv, 2 mg/kg): 2.46 h
- Vd (in vivo; beagle, dog, iv, 2 mg/kg): 1.56 L/kg
- clearance (in vivo; beagle, dog, iv, 2 mg/kg): 14.7 mL/min/kg
- half-life (in vivo; beagle, dog, iv, 2 mg/kg, T1/2): 2.5 h
- bioavailability (in vivo; beagle, dog, po): 49%
- AUC(0-inf) (in vivo; beagle, dog, po, 3 mg/kg): 2150 ng·h/mL
- Cmax (in vivo; beagle, dog, po, 3 mg/kg): 861 ng/mL
- Tmax (in vivo; beagle, dog, po, 3 mg/kg): 0.667 h
- half-life (in vivo; beagle, dog, po, 3 mg/kg, T1/2): 3.34 h
- plasma clearance as % of liver blood flow (in vivo; cynomolgus monkey, iv): 11%
- AUC(0-inf) (in vivo; [7]): 1750 ng·h/mL
- Vd (in vivo; [7]): 4.06 L/kg
- clearance (in vivo; [7]): 4.86 mL/min/kg
- half-life (in vivo; [7]): 12.6 h
- AUC(0-inf) (in vivo; cynomolgus monkey, po, 2 mg/kg): 4340 ng·h/mL
- Cmax (in vivo; cynomolgus monkey, po, 2 mg/kg): 353 ng/mL
- Tmax (in vivo; cynomolgus monkey, po, 2 mg/kg): 3.33 h
- bioavailability (in vivo; cynomolgus monkey, po, 2 mg/kg): 55%
- half-life (in vivo; cynomolgus monkey, po, 2 mg/kg): 11.6 h
